Experiments:
[1] = target: recombinant human prostanoid EP2 receptor (Homo sapiens (Human), UniProt P43116); assay: Human prostanoid EP2 receptor cellular functional assay (cAMP, HTRF); assay type: cell-based; settings: for EC50: CHO cells expressing recombinant human EP2, cAMP by HTRF, 30 min, 37° C., read-out: In vitro functional assay EP2 (h) EC50; for In vitro functional assay EP2 (h) % response: percent of control specific agonist response (10 μM PGE2)
Experimental: Test 1.2: Human Prostanoid EP2 Receptor Cellular Functional Assay
Human CHO cells expressing the recombinant human prostanoid EP2 receptor were suspended in assay medium (HBSS buffer (Invitrogen) containing 20 mM HEPES (pH7.4) and 500 μM isobutyl-methylxanthine IBMX) and plated out to yield approximately 1×10^4 cells/well in a 96-well. Following this, cells were incubated with agonists for 30 min in the presence of the test compounds. For stimulated control measurements, separate assay wells contain 10 μM PGE2 (control specific agonist). All incubations were carried out at 37° C. in a 5% CO2 atmosphere. Following incubation, the amount of cAMP in each well was determined by HTRF method. The cells are lysed and the fluorescence acceptor (D2-labeled cAMP) and fluorescence donor (anti-cAMP antibody labeled with europium cryptate) are added. After 60 min at room temperature, the fluorescence transfer is measured at λ ex=337 nm and λ em=620 and 665 nm using a microplate reader (Rubystar, BMG).
The cAMP concentration is determined by dividing the signal measured at 665 nm by that measured at 620 nm (ratio).
The standard reference agonist PGE2 was tested at several concentrations to generate a concentration-response curve to determined EC50.
(§1) Analysis and Expression of Results
The results are expressed as a percent of control specific agonist response ((measured specific response/control specific agonist response)×100) obtained in the presence of the test compounds. The EC50 values (concentration producing a half-maximal specific response) were determined by non-linear regression analysis of the concentration-response curves generated with mean replicate values using Hill equation curve fitting (Y=D+[(A−D)/(1+(C/C50)nH)], where Y=specific response, D=minimum specific response, A=maximum specific response, C=compound concentration, and C50=EC50 and nH=slope factor). This analysis was performed using a software developed at Cerep (Hill software) and validated by comparison with data generated by the commercial software SigmaPlot® 4.0 for Windows® (© 1997 by SPSS Inc.).

[2] = target: recombinant human prostanoid EP4 receptor (Homo sapiens (Human), UniProt P35408); assay: Human prostanoid EP4 receptor binding assay ([3H]PGE2 displacement); settings: HEK-293(T) membranes, 0.5 nM [3H]PGE2, 120 min at 22° C.; NC: not calculable; read-out: In vitro potency EP4 (h) IC50
Experimental: Test 1.1: Human Prostanoid EP4 Receptor Binding Assay
Cell membrane homogenate from Human embryonic kidney HEK-293(T) cells expressing recombinant human prostanoid EP4 receptor was used to perform Prostanoid receptor radioligand binding assays.
The competition reaction was initiated by incubation of membrane protein homogenate (20 μg protein) for 120 min at 22° C. with 0.5 nM [^3H]PGE2 ligand in the absence or presence of the test compound in a buffer containing 10 mM MES/KOH (pH 6.0), 10 mM MgCl2 and 1 mM EDTA.
Non-specific binding was determined in the presence of 10 μM PGE2 (the corresponding non-radioactive prostanoid). Affinity of the compound binding to hEP4 receptor was measured by displacement of the radiolabeled ligand in the presence of varying doses of tested compound.
Incubations were terminated by rapid filtration under vacuum through glass fiber filters (GF/B, Packard) presoaked with 0.3% PEI and washed several times with ice-cold 50 mM Tris-HCl using a 96-sample cell harvester (Unifilter, Packard).
The filters were dried and the residual radioactivity bound to the individual filters determined with addition of scintillation cocktail (Microscint 0, Packard) by a scintillation counter (Topcount, Packard).
The results were expressed as a percent inhibition of the control radioligand specific binding.
The standard reference compound PGE2, was tested in at several concentrations to obtain a competition curve to determined IC50.
as §1
The specific ligand binding to the receptors is defined as the difference between the total binding and the nonspecific binding determined in the presence of an excess of unlabelled ligand. The results are expressed as a percent of control specific binding ((measured specific binding/control specific binding)×100) obtained in the presence of the test compounds. The IC50 values (concentration causing a half-maximal inhibition of control specific binding) and Hill coefficients (nH) were determined by non-linear regression analysis of the competition curves generated with mean replicate values using Hill equation curve fitting (Y=D+[(A−D)/(1+(C/C50)nH)], where Y=specific binding, D=minimum specific binding, A=maximum specific binding, C=compound concentration, C50=IC50, and nH=slope factor). This analysis was performed using a software developed at Cerep (Hill software) and validated by comparison with data generated by the commercial software SigmaPlot® 4.0 for Windows® (© 1997 by SPSS Inc.). The inhibition constants (Ki) were calculated using the Cheng Prusoff equation (Ki=IC50/(1+(L/KD)), where L=concentration of radioligand in the assay, and KD=affinity of the radioligand for the receptor). A scatchard plot is used to determine the Kd.

recombinant human prostanoid EP2 receptor, sequence (P43116 whole entry): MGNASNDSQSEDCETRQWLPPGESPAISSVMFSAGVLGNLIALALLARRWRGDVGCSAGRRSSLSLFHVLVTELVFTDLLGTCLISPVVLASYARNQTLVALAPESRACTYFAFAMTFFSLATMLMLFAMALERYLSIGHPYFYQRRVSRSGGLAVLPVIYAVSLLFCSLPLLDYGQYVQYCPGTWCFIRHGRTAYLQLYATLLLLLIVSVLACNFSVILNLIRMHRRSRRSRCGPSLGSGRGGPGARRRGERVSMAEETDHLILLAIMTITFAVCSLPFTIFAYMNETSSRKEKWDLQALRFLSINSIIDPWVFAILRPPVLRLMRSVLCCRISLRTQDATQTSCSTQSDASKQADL
recombinant human prostanoid EP4 receptor, sequence (P35408 whole entry): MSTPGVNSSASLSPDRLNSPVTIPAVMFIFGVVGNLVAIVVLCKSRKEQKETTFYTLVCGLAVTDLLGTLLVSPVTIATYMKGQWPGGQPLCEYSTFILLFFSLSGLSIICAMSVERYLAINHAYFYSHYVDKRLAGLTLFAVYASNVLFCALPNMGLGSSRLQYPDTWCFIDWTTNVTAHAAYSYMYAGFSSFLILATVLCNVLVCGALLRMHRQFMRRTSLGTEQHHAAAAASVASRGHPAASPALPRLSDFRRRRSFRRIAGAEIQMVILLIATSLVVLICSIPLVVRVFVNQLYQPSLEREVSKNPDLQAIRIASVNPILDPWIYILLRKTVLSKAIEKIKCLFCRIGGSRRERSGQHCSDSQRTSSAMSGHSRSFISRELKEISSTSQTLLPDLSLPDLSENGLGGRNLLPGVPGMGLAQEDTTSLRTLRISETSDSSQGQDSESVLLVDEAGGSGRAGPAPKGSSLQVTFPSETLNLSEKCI

| Structure (SMILES) | EC50 [1] [nM] | In vitro functional assay EP2 (h) % response [1] [%] | IC50 [2] [nM] |
| --- | --- | --- | --- |
| Cc1cc(-c2cccc(F)c2)cc(CNc2c(C)ccc(OCC(=O)O)c2C)c1F [I(ag), 2-[3-[[2-fluoro-5-(3-fluorophenyl)-3-methyl-phenyl]methylamino]-2,4-dimethyl-phenoxy]acetic acid] | < 1 | 85 | > 300 |
| Cc1cc(-c2cccc(F)c2)cc(CNc2c(F)ccc(OCC(=O)O)c2C)c1C [I(at), 2-[4-fluoro-3-[[5-(3-fluorophenyl)-2,3-dimethyl-phenyl]methylamino]-2-methyl-phenoxy]acetic acid] | 6 | 91 | > 300 |
| O=C(O)COc1ccc(Cl)c(NCc2cc(-c3cccc(F)c3)ccc2F)c1Cl [I(r), 2-[2,4-Dichloro-3-[[2-fluoro-5-(3-fluorophenyl)phenyl]methylamino]phenoxy]acetic acid] | 45 | 78 | > 300 |
| O=C(O)COc1ccc(Cl)c(NCc2cc(-c3cccc(F)c3)ccc2F)c1F [I(k), 2-[4-Chloro-2-fluoro-3-[[2-fluoro-5-(3-fluorophenyl)phenyl]methylamino]phenoxy]acetic acid] | 73 | 77 | > 300 |
| Cc1ccc(OCC(=O)O)c(C)c1NCc1cc(-c2cccc(F)c2)cc(F)c1C [I(aw), 2-[3-[[3-fluoro-5-(3-fluorophenyl)-2-methyl-phenyl]methylamino]-2,4-dimethyl-phenoxy]acetic acid] | 3 | 80 | > 300 |
| Cc1cc(-c2cccc(F)c2)cc(CNc2c(C)ccc(OCC(=O)O)c2C)c1C [I(ak), 2-[3-[[5-(3-fluorophenyl)-2,3-dimethyl-phenyl]methylamino]-2,4-dimethyl-phenoxy]acetic acid] | 2 | 113 | > 300 |
| COc1c(C)cc(-c2cccc(F)c2)cc1CNc1c(F)ccc(OCC(=O)O)c1F [I(t), 2-[2,4-Difluoro-3-[[5-(3-fluorophenyl)-2-methoxy-3-methyl-phenyl]methylamino]phenoxy]acetic acid] | 17 | 73 | – |
| Cc1cc(-c2cccc(F)c2)cc(CNc2c(F)ccc(OCC(=O)O)c2F)c1F [I(h), 2-[2,4-difluoro-3-[[2-fluoro-5-(3-fluorophenyl)-3-methyl-phenyl]methylamino]phenoxy]acetic acid] | 13 | 88 | – |
| Cc1ccc(OCC(=O)O)c(F)c1NCc1cc(-c2cccc(F)c2)ccc1F [I(i), 2-[2-Fluoro-3-[[2-fluoro-5-(3-fluorophenyl)phenyl]methylamino]-4-methyl-phenoxy]acetic acid] | 99 | 73 | – |
| Cc1c(OCC(=O)O)ccc(F)c1NCc1cc(O)cc(-c2cccc(F)c2)c1 [I(ah), 2-[4-fluoro-3-[[3-(3-fluorophenyl)-5-hydroxy-phenyl]methylamino]-2-methyl-phenoxy]acetic acid] | 8 | 74 | – |
| Cc1c(-c2cccc(F)c2)ccc(F)c1CNc1c(F)ccc(OCC(=O)O)c1F [I(y), 2-[2,4-difluoro-3-[[6-fluoro-3-(3-fluorophenyl)-2-methyl-phenyl]methylamino]phenoxy]acetic acid] | 130 | 62 | – |
| O=C(O)COc1ccc(F)c(NCc2cc(-c3ccc(F)c(F)c3)ccc2F)c1F [I(w), 2-[3-[[5-(3,4-difluorophenyl)-2-fluoro-phenyl]methylamino]-2,4-difluoro-phenoxy]acetic acid] | 14 | 40 | – |
| COc1cc(CNc2c(F)ccc(OCC(=O)O)c2F)cc(-c2cccc(F)c2)c1 [I(q), 2-[2,4-Difluoro-3-[[3-(3-fluorophenyl)-5-methoxy-phenyl]methylamino]phenoxy]acetic acid] | 18 | 70 | – |
| Cc1cc(-c2ccc(F)c(F)c2)cc(CNc2c(F)ccc(OCC(=O)O)c2F)c1C [I(aq), 2-[3-[[5-(3,4-difluorophenyl)-2,3-dimethyl-phenyl]methylamino]-2,4-difluoro-phenoxy]acetic acid] | 2 | 31 | – |
| C[C@@H](Nc1c(F)ccc(OCC(=O)O)c1F)c1cc(-c2cccc(F)c2)ccc1F (single isomer, unassigned) [I(as) (+ isomer)] | 18 | 124 | – |
| O=C(O)COc1ccc(F)c(NCc2cc(-c3cccc(F)c3)ccc2F)c1F [I(b), 2-[2,4-Difluoro-3-[[2-fluoro-5-(3-fluorophenyl)phenyl]methylamino]phenoxy]acetic acid] | 28 | 82 | – |
| O=C(O)COc1cccc(NCc2cc(-c3cccc(F)c3)ccc2F)c1 [I(a), 2-[3-[[2-Fluoro-5-(3-fluorophenyl)phenyl]methylamino]phenoxy]acetic acid] | 110 | 74 | – |
| Cc1c(F)cc(-c2cccc(F)c2)cc1CNc1c(F)ccc(OCC(=O)O)c1C [I(av), 2-[4-fluoro-3-[[3-fluoro-5-(3-fluorophenyl)-2-methyl-phenyl]methylamino]-2-methyl-phenoxy]acetic acid] | 5 | 97 | – |
| O=C(O)COc1ccc(F)c(NCc2cc(-c3cccc(F)c3)ccc2Cl)c1F [I(l), 2-[3-[[2-Chloro-5-(3-fluorophenyl)phenyl]methylamino]-2,4-difluoro-phenoxy]acetic acid] | 24 | 76 | – |
| Cc1cc(OCC(=O)O)c(C)c(NCc2cc(-c3cccc(F)c3)ccc2F)c1F [I(ac), 2-[4-fluoro-3-[[2-fluoro-5-(3-fluorophenyl)phenyl]methylamino]-2,5-dimethyl-phenoxy]acetic acid] | 18 | 117 | – |
| O=C(O)COc1ccc(F)c(NCc2c(F)ccc(-c3cccc(F)c3)c2F)c1F [I(s), 2-[3-[[2,6-Difluoro-3-(3-fluorophenyl)phenyl]methylamino]-2,4-difluoro-phenoxy]acetic acid] | 17 | 72 | – |
| COc1cc(CNc2c(C)ccc(OCC(=O)O)c2C)cc(-c2cccc(F)c2)c1 [I(ap), 2-[3-[[3-(3-fluorophenyl)-5-methoxy-phenyl]methylamino]-2,4-dimethyl-phenoxy]acetic acid] | 3 | 89 | – |
| Cc1cc(OCC(=O)O)c(F)c(NCc2cc(-c3cccc(F)c3)ccc2F)c1F [I(ab), 2-[2,4-difluoro-3-[[2-fluoro-5-(3-fluorophenyl)phenyl]methylamino]-5-methyl-phenoxy]acetic acid] | 50 | 105 | – |
